PubChem BioAssay AID248 (DTP/NCI, 2004)
Where “and” joins values, the source holds several entries; their conditions need not be identical. Equal entries are not always repeated. Inconclusive results and toxic doses are left out.

System: L1210 leukemia ip in BDF1 mice, survival T/C
Assay: NCI In Vivo Anticancer Drug Screen. Data for tumor model L1210 Leukemia (intraperitoneal) in B6D2F1 (BDF1) mice
Settings: endpoint: mean survival time, higher = longer survival
How it was run: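 Read-out is survival time, reported as the treated-group measurement over the vehicle-control measurement.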

[1] = dose: 25.0 mg/kg/injection, schedule: Q04DX002 (ip), vehicle: Klucel (hydroxypropylcellulose) (HPC)
[2] = dose: 50.0 mg/kg/injection, schedule: Q04DX002 (ip), vehicle: Klucel (hydroxypropylcellulose) (HPC)
[3] = dose: 100.0 mg/kg/injection, schedule: Q04DX002 (ip), vehicle: Klucel (hydroxypropylcellulose) (HPC)
[4] = dose: 100.0 mg/kg/injection, schedule: Q01DX001 (ip), vehicle: saline with Tween-80
[5] = dose: 200.0 mg/kg/injection, schedule: Q01DX001 (ip), vehicle: saline with Tween-80
[6] = dose: 100.0 mg/kg/injection, schedule: Q01DX001 (ip), vehicle: saline
[7] = dose: 200.0 mg/kg/injection, schedule: Q01DX001 (ip), vehicle: saline
[8] = dose: 400.0 mg/kg/injection, schedule: Q01DX001 (ip), vehicle: saline
[9] = dose: 100.0 mg/kg/injection, schedule: Q01DX001 (ip), vehicle: carboxymethylcellulose (CMC)
[10] = dose: 200.0 mg/kg/injection, schedule: Q01DX001 (ip), vehicle: carboxymethylcellulose (CMC)
[11] = dose: 400.0 mg/kg/injection, schedule: Q01DX001 (ip), vehicle: carboxymethylcellulose (CMC)
[12] = dose: 50.0 mg/kg/injection, schedule: Q01DX001 (ip), vehicle: carboxymethylcellulose (CMC)

`Oc1ccc(-c2cc3c(O)ccc(O)c3[nH]2)cc1O` was tested, and the T/C [1] was 86 % of control, the T/C [2] was 93 % of control and the T/C [3] was 89 % of control.
In the case of `O=C1c2ccccc2C(=Cc2c3ccccc3cc3ccccc23)c2ccccc21`, the T/C [1] is reported as 97 % of control, the T/C [2] is reported as 106 % of control and the T/C [3] is reported as 94 % of control.
`Nc1ncnc2nc(-c3ccc(CNC(=O)CCc4ccc(S(=O)(=O)F)cc4)cc3)[nH]c12` was tested, and the T/C [4] was 89 % of control, the T/C [5] was 89 % of control and the T/C (dose: 400.0 mg/kg/injection, schedule: Q01DX001 (ip), vehicle: saline with Tween-80) was 89 % of control.
With `OCCN1CCNCC1` the T/C [6] was 105 % of control, the T/C [7] was 105 % of control and the T/C [8] was 100 % of control.
`BrCc1nc2ccccc2[nH]1` was tested, and the T/C [6] was 95 % of control, the T/C [7] was 101 % of control and the T/C [8] was 107 % of control.
For `CN(C)C1c2cc(Br)ccc2-c2ccc([N+](=O)[O-])cc21` (stereo not given), the T/C [9] was 94 % of control, the T/C [10] was 103 % of control and the T/C [11] was 100 % of control.
With `CC(=O)Nc1ccc(/C=N/NC(=O)C(O)(c2ccccc2)c2ccccc2)cc1` the T/C [9] was 97 % of control, the T/C [10] was 103 % of control and the T/C [11] was 97 % of control.
In the case of `O=COCCc1ccccc1`, the T/C (dose: 100.0 mg/kg/injection, schedule: Q01DX009 (ip), vehicle: Klucel (hydroxypropylcellulose) (HPC)) is reported as 102 % of control, the T/C (dose: 200.0 mg/kg/injection, schedule: Q01DX009 (ip), vehicle: Klucel (hydroxypropylcellulose) (HPC)) is reported as 102 % of control and the T/C (dose: 400.0 mg/kg/injection, schedule: Q01DX009 (ip), vehicle: Klucel (hydroxypropylcellulose) (HPC)) is reported as 97 % of control.
For `O=C(O)NC1(c2ccccc2)OC1c1ccccc1` (stereo not given), the T/C (dose: 50.0 mg/kg/injection, schedule: Q01DX001 (ip), vehicle: saline with Tween-80) was 115 % of control, the T/C [4] was 98 % of control and the T/C [5] was 94 % of control.
For `CN1CCCN(C)C1c1ccccc1O`, the T/C (dose: 12.5 mg/kg/injection, schedule: Q04DX003 (ip), vehicle: saline) was 96 % of control, the T/C (dose: 25.0 mg/kg/injection, schedule: Q04DX003 (ip), vehicle: saline) was 106 % of control and the T/C (dose: 50.0 mg/kg/injection, schedule: Q04DX003 (ip), vehicle: saline) was 101 % of control.
`CC(CO)(CO)Cc1ccccc1` was tested, and the T/C (dose: 100.0 mg/kg/injection, schedule: Q04DX002 (ip), vehicle: saline with Tween-80) was 97 % of control, the T/C (dose: 200.0 mg/kg/injection, schedule: Q04DX002 (ip), vehicle: saline with Tween-80) was 108 % of control and the T/C (dose: 400.0 mg/kg/injection, schedule: Q04DX002 (ip), vehicle: saline with Tween-80) was 120 % of control.
With `CCCCCCSC1=C(SCCCCCC)C(=O)c2[nH]cnc2C1=O` the T/C [12] was 100 % of control, the T/C [9] was 95 % of control and the T/C [10] was 90 % of control. For the same molecule, the T/C [11] was 90 % of control.
With `CCN(CC)P(=O)(N1CC1C)N1CC1C` (stereo not given) the T/C (dose: 4.4 mg/kg/injection, schedule: Q01DX015 (ip), vehicle: saline) was 111 % of control, the T/C (dose: 6.25 mg/kg/injection, schedule: Q01DX009 (ip), vehicle: saline) was 122 % of control and the T/C (dose: 6.6 mg/kg/injection, schedule: Q01DX015 (ip), vehicle: saline) was 105 % of control. The T/C (dose: 10.0 mg/kg/injection, schedule: Q01DX015 (ip), vehicle: saline) was 106 % of control, the T/C (dose: 14.0 mg/kg/injection, schedule: Q01DX009 (ip), vehicle: saline) was 112 % of control and the T/C (dose: 15.0 mg/kg/injection, schedule: Q01DX015 (ip), vehicle: saline) was 106 % of control. The T/C (dose: 33.0 mg/kg/injection, schedule: Q01DX015 (ip), vehicle: saline) was 109 % of control, the T/C (dose: 44.4 mg/kg/injection, schedule: Q01DX001 (ip), vehicle: saline) was 108 % of control and 115 % of control and the T/C (dose: 50.0 mg/kg/injection, schedule: Q01DX015 (ip), vehicle: saline) was 102 % of control. The T/C (dose: 66.6 mg/kg/injection, schedule: Q01DX001 (ip), vehicle: saline) was 121 % of control, the T/C (dose: 75.0 mg/kg/injection, schedule: Q01DX009 (ip), vehicle: saline) was 90 % of control and the T/C (dose: 150.0 mg/kg/injection, schedule: Q01DX001 (ip), vehicle: saline) was 157 % of control.
In the case of `Nc1nc(N)c(N=Nc2ccc([As](=O)(O)O)c(O)c2)c(N)n1`, the T/C [6] is reported as 92 % of control, the T/C [7] is reported as 92 % of control and the T/C [8] is reported as 100 % of control.
In the case of `CC(=O)CCC(C(C)=O)C(C)=O`, the T/C [6] is reported as 106 % of control, the T/C [7] is reported as 106 % of control and the T/C [8] is reported as 103 % of control.
In the case of `C[Si](C)(O[Si](C)(C)c1ccccc1)c1ccccc1`, the T/C (dose: 20.0 mg/kg/injection, schedule: Q01DX009 (ip), vehicle: saline) is reported as 93 % of control, the T/C (dose: 40.0 mg/kg/injection, schedule: Q01DX009 (ip), vehicle: saline) is reported as 90 % of control and the T/C (dose: 80.0 mg/kg/injection, schedule: Q01DX009 (ip), vehicle: saline) is reported as 87 % of control. The T/C (dose: 100.0 mg/kg/injection, schedule: Q01DX009 (ip), vehicle: saline) was 95 % of control, the T/C (dose: 100.0 mg/kg/injection, schedule: Q04DX003 (ip), vehicle: saline) was 103 % of control and the T/C (dose: 200.0 mg/kg/injection, schedule: Q01DX009 (ip), vehicle: saline) was 107 % of control. For the same molecule, the T/C (dose: 200.0 mg/kg/injection, schedule: Q04DX003 (ip), vehicle: saline) was 100 % of control and the T/C (dose: 400.0 mg/kg/injection, schedule: Q04DX003 (ip), vehicle: saline) was 97 % of control.
For `COC1OC(CO)C(O)C(NC(=O)NCCCl)C1O` (stereo not given), the T/C [6] was 113 % of control, the T/C [7] was 111 % of control and the T/C [8] was 103 % of control.
For `Nc1cc(Cl)ccc1Nc1ccccc1`, the T/C [12] was 101 % of control, the T/C [9] was 109 % of control and the T/C [10] was 101 % of control. The T/C [11] was 101 % of control.
`O=[N+]([O-])c1cccc(C2=NNC(c3cccc([N+](=O)[O-])c3)=NN2)c1` was tested, and the T/C (dose: 175.0 mg/kg/injection, schedule: Q01DX001 (ip), vehicle: saline) was 87 % of control, the T/C (dose: 265.0 mg/kg/injection, schedule: Q01DX001 (ip), vehicle: saline) was 92 % of control and the T/C [8] was 89 % of control. For the same molecule, the T/C (dose: 600.0 mg/kg/injection, schedule: Q01DX001 (ip), vehicle: saline) was 89 % of control.
`C=CC[P+](CC)(c1ccccc1)c1ccccc1` was tested, and the T/C (dose: 3.13 mg/kg/injection, schedule: Q01DX009 (ip), vehicle: saline) was 97 % of control.
